# Experimental data as given in PMC9960553, ““Dual Anta-Inhibitors” of the A2A Adenosine Receptor and Casein Kinase CK1delta: Synthesis, Biological Evaluation, and Molecular Modeling Studies” (Pharmaceuticals, 2023).
# Values joined by “and” are separate entries in the source; they are usually repeats but may differ in a detail not shown here. Identical values can stand only once.
# Legend:
# [1] = target: T1, human recombinant A3AR (Homo sapiens, UniProt P0DMS8); test: [3H]HEMADO displacement binding in CHO cell membranes; settings: mean ± standard error, read-out: KiA3
# T1 construct: expressed in transfected cells; host or cells: CHO cells (membranes)
# T1 sequence (P0DMS8 1-318): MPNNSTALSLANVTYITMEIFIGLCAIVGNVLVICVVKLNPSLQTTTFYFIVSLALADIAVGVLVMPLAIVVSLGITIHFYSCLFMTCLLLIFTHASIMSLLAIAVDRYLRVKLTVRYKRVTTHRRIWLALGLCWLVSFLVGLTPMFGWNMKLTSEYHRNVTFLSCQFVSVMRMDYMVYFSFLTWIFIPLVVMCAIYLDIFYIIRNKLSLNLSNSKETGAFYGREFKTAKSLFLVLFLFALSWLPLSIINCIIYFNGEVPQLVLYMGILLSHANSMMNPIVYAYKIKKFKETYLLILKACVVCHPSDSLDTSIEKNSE
# Method: (§1) Compounds 5, 6, 8–12, 15–21, and 23–25 were evaluated in binding studies at human recombinant A1, A2A, and A3 ARs, stably transfected in Chinese hamster ovary (CHO) cells. [^3H]CCPA (2-chloro-N^6-cyclopentylAdo), [^3H]NECA (5’-N-ethylcarboxamidoAdo), and [^3H]HEMADO (2-hexynyl-N^6-methylAdo) were used as the, respective, radioligands. All compounds were also tested at the A2BARs by inhibition of NECA-stimulated adenylyl cyclase activity, using the GloSensor cAMP assay, but none of them were active at a concentration up to 30 μM [35]. The results, together with the data of the reference adenine derivative 1, are reported in Table 2 as Ki values in μM (± standard errors). In the table, the IC50 values (μM) of the CK1δ inhibitory activity are also indicated. […] We called the compounds endowed with receptor antagonist behavior combined with an enzyme inhibitory activity “dual anta-inhibitors”.
# (§2) All of the pharmacological methods followed the procedures as described earlier. In brief, the membranes for radioligand binding were prepared from CHO cells stably transfected with human adenosine receptor subtypes through two centrifugations at different speeds. The first low-speed […] centrifugation allowed for the removal of cell fragments and nuclei, while the second, performed at high speed (100,000× g), allowed for the precipitation of the crude membrane fractions. The resulting membrane pellet was resuspended in the buffer used for the respective binding experiments, frozen in liquid nitrogen, and stored in aliquots at −80 °C.
# (§3) The binding affinity of the novel compounds was evaluated using radioligand competition experiments in CHO cells stably expressing hA1AR, hA2AAR, hA3AR subtypes, as early described. Results were expressed as Ki values (dissociation constants), which were calculated with the program GraphPad (GraphPad Software, San Diego, CA, USA). Each concentration was tested three–five times in duplicate and the values given as the mean ± standard error (S.E.). The potency of compounds at the hA2BAR (expressed on CHO cells) was determined through a GloSensor cAMP Assay.
# [2] = target: T2, human recombinant A1AR (Homo sapiens, UniProt P30542); test: [3H]CCPA displacement binding in CHO cell membranes; settings: mean ± standard error, read-out: KiA1
# T2 construct: expressed in transfected cells; host or cells: CHO cells (membranes)
# T2 sequence (P30542 1-326): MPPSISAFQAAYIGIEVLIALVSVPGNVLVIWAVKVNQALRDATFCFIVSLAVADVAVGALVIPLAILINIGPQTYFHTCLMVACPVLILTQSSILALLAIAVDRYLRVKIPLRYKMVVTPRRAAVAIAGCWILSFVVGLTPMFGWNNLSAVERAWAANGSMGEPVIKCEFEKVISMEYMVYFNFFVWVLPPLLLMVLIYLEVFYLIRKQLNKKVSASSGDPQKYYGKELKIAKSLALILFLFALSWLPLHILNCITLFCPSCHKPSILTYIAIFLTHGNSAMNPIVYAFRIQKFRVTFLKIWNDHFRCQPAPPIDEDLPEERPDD
# Method: as §1, §2, §3
# [3] = target: T3, truncated CK1δ (Homo sapiens, UniProt P48730); test: CK1δ luminescent kinase assay (Kinase-Glo); format: biochemical; settings: for remaining activity at 10 µM: read-out: % Residual Activity at 10 μM ± sd; for remaining activity at 40 µM: compound at 40 μM, read-out: % Residual Activity at 40 μM ± sd; for IC50: truncated CK1δ, ATP 2 μM, read-out: IC50 (μM), CK1δ inhibition
# T3 construct: recombinant human, GST-tagged, aa 1-294; GST; purchased Merck Millipore, Merck KGaA, Darmstadt, Germany
# T3 sequence (P48730 1-294): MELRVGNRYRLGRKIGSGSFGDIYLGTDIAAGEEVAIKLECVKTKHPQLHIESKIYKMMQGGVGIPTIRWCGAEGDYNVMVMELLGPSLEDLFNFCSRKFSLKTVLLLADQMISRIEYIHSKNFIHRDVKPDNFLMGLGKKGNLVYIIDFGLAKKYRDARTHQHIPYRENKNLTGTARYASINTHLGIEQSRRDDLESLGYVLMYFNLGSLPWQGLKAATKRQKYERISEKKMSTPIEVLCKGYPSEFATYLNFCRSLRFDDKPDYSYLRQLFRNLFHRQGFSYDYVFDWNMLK
# Method: Luminescent assays were performed in white 96-well plates in a 40 μL final volume with buffer containing 50 mM HEPES (pH 7.5), 1 mM EDTA, 1 mM EGTA, and 15 mM MgCl2. In a typical assay, 10 μL of inhibitor solution (desired concentrations were obtained by diluting a starting 10 mM solution in DMSO) and 10 μL of enzyme solution were added to the well, followed by 20 μL of assay buffer containing casein substrate (Sigma-Aldrich, Merck KGaA, Darmstadt, Germany, casein solution from bovine milk, 5% in water) and ATP, at a final concentration of 0.05% and 2 μM, respectively. […] After 60 min of incubation at 30 °C, the enzymatic reactions were stopped with the addition of 40 μL of KinaseGlo reagent. […] Data were analyzed using Excel and GraphPad Prism software (version 8.0).
# [4] = target: T4, human recombinant A2AAR (Homo sapiens, UniProt P29274); test: [3H]NECA displacement binding in CHO cell membranes; settings: mean ± standard error, read-out: KiA2A
# T4 construct: expressed in transfected cells; host or cells: CHO cells (membranes)
# Method: as §1, §2, §3
# [5] = CK1δ residual activity, compound at 10 μM
# T4 sequence (P29274 whole entry): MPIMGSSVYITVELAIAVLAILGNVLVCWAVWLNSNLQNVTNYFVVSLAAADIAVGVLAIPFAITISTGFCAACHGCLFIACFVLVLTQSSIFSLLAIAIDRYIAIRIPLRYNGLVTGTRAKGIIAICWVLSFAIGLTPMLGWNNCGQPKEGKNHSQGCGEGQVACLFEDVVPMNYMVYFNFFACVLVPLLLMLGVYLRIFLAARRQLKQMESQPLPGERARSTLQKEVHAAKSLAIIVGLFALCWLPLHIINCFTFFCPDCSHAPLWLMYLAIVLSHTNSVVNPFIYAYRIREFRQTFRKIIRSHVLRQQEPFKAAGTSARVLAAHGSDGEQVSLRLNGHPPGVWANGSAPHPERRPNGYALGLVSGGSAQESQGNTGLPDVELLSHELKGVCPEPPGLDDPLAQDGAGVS
SMILES,Ki [1] [µM],Ki [2] [µM],melting point [°C],"remaining activity at 10 µM [3, 5] [%]",remaining activity at 40 µM ([3]; CK1δ residual activity) [%],IC50 [3],Ki [4] [µM],"% Residual Activity at 10 μM ± sd ([3]; CK1δ residual activity, compound at 10 μM, 10 µM) [%]"
"Nc1nc(Cl)nc2c1nc(-c1ccco1)n2C1CCCC1 [Compound 8, 2-chloro-9-cyclopentyl-8-(furan-2-yl)-9H-purin-6-amine]",0.14 ± 0.035,0.118 ± 0.01,152 to 153,,86 ± 1.6,> 40 µM,0.007,
"Nc1nc(Cl)nc2c1nc(-c1cccs1)n2C1CCCC1 [Compound 9, 2-chloro-9-cyclopentyl-8-(thiophen-2-yl)-9H-purin-6-amine]",0.017 ± 0.002,0.053 ± 0.009,158 to 159,,90 ± 4.6,> 40 µM,0.036 ± 0.009,
"Nc1nc(NCCc2ccccc2)nc2c1ncn2C1CCCC1 [Compound 11, 9-Cyclopentyl-N^2-phenethyl-9H-purine-2,6-diamine]",0.049 ± 0.008,0.58 ± 0.046,,,88 ± 2.9,> 40 µM,0.012 ± 0.003,
"Clc1nc(NCc2nc3ccccc3[nH]2)c2ncn(C3CCCC3)c2n1 [Compound 15, N-((1H-benzo[d]imidazol-2-yl)methyl)-2-chloro-9-cyclopentyl-9H-purin-6-amine]",1.138 ± 0.004,> 30,,24 ± 14,22 ± 13,1.53 ± 0.4 µM,3.26 ± 0.626,
"c1ccc(CNc2nc(NCc3nc4ccccc4[nH]3)c3ncn(C4CCCC4)c3n2)cc1 [Compound 16, N^6-((1H-benzo[d]imidazol-2-yl)methyl)-N^2-benzyl-9-cyclopentyl-9H-purine-2,6-diamine]",0.432 ± 0.025,> 30,,26 ± 7.6,46 ± 31,4.76 ± 0.3 µM,0.718 ± 0.149,
"O=C(NCc1ccccc1)Nc1nc(Cl)nc2c1ncn2C1CCCC1 [Compound 18, 1-Benzyl-3-(2-chloro-9-cyclopentyl-9H-purin-6-yl)urea]",> 30,> 30,,38 ± 6,29 ± 3.9,3.37 ± 2.5 µM,> 30,
O=C(CNc1nc(Cl)nc2c1ncn2C1CCCC1)NCc1ccccc1 [Compound 20],,> 30,,32 ± 16,29 ± 12,1.87 ± 0.2 µM,> 30,
"Clc1nc(NCCc2ccccc2)c2ncn(C3CCCC3)c2n1 [Compound 23, 2-chloro-N^6-(2-phenylethyl)-9-cyclopentyladenine]",0.151 ± 0.015,1.34 ± 0.279,100 to 101,27 ± 20,14 ± 9.7,0.66 ± 0.2 µM,1.17 ± 0.037,
"Clc1nc(NCCCc2ccccc2)c2ncn(C3CCCC3)c2n1 [Compound 24, 2-chloro-9-cyclopentyl-N-(3-phenylpropyl)-9H-purin-6-amine]",1.27 ± 0.289,0.692 ± 0.088,177 to 179,26 ± 6.7,11 ± 19,0.73 ± 0.1 µM,3.34 ± 0.749,
"Clc1ccc(CCNc2nc(Cl)nc3c2ncn3C2CCCC2)cc1 [Compound 25, 2-Chloro-N-(4-chlorophenethyl)-9-cyclopentyl-9H-purin-6-amine]",,10.8 ± 2.04,,31 ± 12,14 ± 4.3,1.69 ± 1 µM,2.65 ± 0.381,

# The next lines start with the values.
Ki [1] [µM],Ki [2] [µM],melting point [°C],"remaining activity at 10 µM [3, 5] [%]",remaining activity at 40 µM ([3]; CK1δ residual activity) [%],IC50 [3],Ki [4] [µM],"% Residual Activity at 10 μM ± sd ([3]; CK1δ residual activity, compound at 10 μM, 10 µM) [%]",SMILES
0.631 ± 0.062,1.89 ± 0.16,121 to 122,13 ± 7.4,0.7 ± 0.4,5.25 µM and 5.2 µM,0.465 ± 0.129,,"Nc1nc(Cl)nc2c1ncn2C1CCCC1 [Compound 1, 2-chloro-9-cyclopentyl-9H-purin-6-amine]"
,1.53 ± 0.265,117 to 119,37 ± 3.8,43 ± 3.2,5.25 ± 0.9 µM,0.558 ± 0.151,,"Nc1nc(Cl)nc2c1ncn2C1CCC1 [Compound 5, 2-chloro-9-cyclobutyl-9H-purin-6-amine]"
,,125 to 126,> 50,30 ± 0.2,> 10 µM,,52 ± 3.0,"Nc1nc(Cl)nc2c1ncn2C1CCCCC1 [Compound 6, 2-chloro-9-cyclohexyl-9H-purin-6-amine]"
0.298 ± 0.047,3.96 ± 0.8,,48 ± 3.5,30 ± 4.1,5.3 ± 1 µM,0.157 ± 0.04,,"Nc1nc(NCc2ccccc2)nc2c1ncn2C1CCCC1 [Compound 10, N^2-benzyl-9-cyclopentyl-9H-purine-2,6-diamine]"
14.8 ± 3.01,20.7 ± 1.87,,23 ± 2.4,44 ± 2.6,2.55 ± 0.2 µM,13.5 ± 0.98,,"COC(=O)CNc1nc(Cl)nc2c1ncn2C1CCCC1 [Compound 19, Methyl (2-chloro-9-cyclopentyl-9H-purin-6-yl)glycinate]"
5.96 ± 1.02,8.66 ± 1.52,,13 ± 24,25 ± 9.6,0.36 ± 0.1 µM,3.48 ± 0.312,,"N#CCNc1nc(Cl)nc2c1ncn2C1CCCC1 [Compound 21, 2-((2-Chloro-9-cyclopentyl-9H-purin-6-yl)amino)acetonitrile]"
